Data as given in patent US8202855B2, “Substituted beta-lactams” (Allergan, Inc, priority 2008, dated 2012).

Test system: lashes and adjacent hairs of patients having glaucoma
Assay: Observation of lashes in glaucoma patients treated in one eye
Type: in vivo
Details: glaucoma patients treated in only one eye
Source text: In the course of treating patients having glaucoma, treatment may only be appropriate in one eye. […] The lash appearance on the lids of the treated eyes would have appeared quite attractive if it represented a bilateral phenomenon. As a result of its asymmetric nature, the long lashes on one side could be construed as disturbing from a cosmetic standpoint. A systemic examination was preformed as a result of the asymmetric phenomenon. It soon became apparent that this altered appearance was not an isolated finding. […] Definite differences could be identified to varying degrees in the lashes and adjacent hairs of all patients who were taking the drug on a unilateral basis for longer than 6 months.
The changes in the lashes were apparent on gross inspection in several patients once attention was focused on the issue. In those with light colored hair and lashes, the differences were only seen easily with the aid of the high magnification and lighting capabilities of the slit lamp biomicroscope. In the course of glaucoma follow-up examination, attention is generally immediately focused on the eye itself. As a result of the high power magnification needed only one eye is seen at a time and the eye is seen at a high enough power that the lashes are not in focus. […]

`CCNC(=O)CCC/C=C\C[C@@H]1[C@@H](/C=C/[C@@H](O)CCc2ccccc2)[C@H](O)C[C@@H]1O` [bimatoprost] was tested. Which “lash appearance in treated eye versus non-treated eye” value did it give?
Its value is “longer, thicker, and fuller in the treated eye than in the non-treated eye”.
